Source: patent US9708314B2, “Heterocyclic amide compound” (NISSAN CHEMICAL INDUSTRIES, LTD., priority 2013, dated 2017)

How the values were obtained:
Format in all cases: in vivo
Conditions in all cases: application to foliage, 320 g/ha
[1] = system: Triticum aestivum; experiment: Test Example 4: effect on crop by application to foliage (diluvial soil, plastic box)
Text: (§1) 5 Herbicidal ratio of 90% or more (almost completely withered) 4 Herbicidal ratio of 70% or more and less than 90% 3 Herbicidal ratio of 40% or more and less than 70% 2 Herbicidal ratio of 20% or more and less than 40% 1 Herbicidal ratio of 5% or more and less than 20% 0 Herbicidal ratio of 5% or less (almost no effect) [Test Example 4] Herbicidal Effect Test by Application to Foliage Sterilized diluvial soil was placed in a plastic box having a length of 21 cm, a width of 13 cm, and a depth of 7 cm. Each of the seeds of Digitaria ciliaris, Setaria viridis, Echinochloa crus-galli var. crus-galli, Avena fatua, Alopecurus myosuroides, Lolium multiflorum Lam., Apera spica-venti., Abutilon theophrasti, Amaranthus retroflexus, Chenopodium album, Stellaria media, Galium spurium, Veronica persica, Zea mays, Glycine max, Oryza sativa, Triticum aestivum, Beta vulgaris ssp. vulgaris, and Brassica campestris L. was sowed in a spot-like manner and was covered with the soil of about 1.5 cm thick. Thereafter, the plants were grown in the greenhouse of 25° C. to 30° C. After the plants were grown for 14 days, the emulsion agent containing the compound of the present invention prepared in accordance with Formulation Example 2 was diluted with water so as to be a predetermined herbicide amount and the diluted compound was uniformly applied to a stem and leaf part with a small-size spray. Three weeks after the herbicide application, effects on each plant were investigated in accordance with the criteria of Test Example 1. A: Echinochloa oryzicola Vasing., B: Scirpus juncoides, C: Monochoria vaginalis, D: Leptochloa chinensis, E: Cyperus difformis, F: Digitaria ciliaris, G: Setaria viridis, H: Echinochloa crus-galli var. crus-galli, I: Avena fatua, J: Alopecurus myosuroides, K: Lolium multiflorum Lam., L: Apera spica-venti., M: Abutilon theophrasti, N: Amaranthus retroflexus, O: Chenopodium album, P: Stellaria media, Q: Galium spurium, R: Veronica persica, a: transplanted Oryza sativa, b: directly sowed Oryza sativa, c: Zea mays, d: Glycine max, e: Triticum aestivum, f: Beta vulgaris ssp. vulgaris, and g: Brassica campestris L. The application herbicide amount (g/ha) means an amount that a concentration is adjusted so that, when an application amount is converted into per hectare (1 ha), the herbicide is applied by the number of grams (g) of the described value.

[2] = system: Zea mays; experiment: as above
Text: as §1

[3] = system: directly sowed Oryza sativa; experiment: as above
Text: as §1

[4] = system: Glycine max; experiment: as above
Text: as §1

[5] = system: Beta vulgaris ssp. vulgaris; experiment: as above
Text: as §1

[6] = system: Brassica campestris L.; experiment: as above
Text: as §1

[7] = system: Amaranthus retroflexus; experiment: Test Example 4: herbicidal effect by application to foliage (diluvial soil, plastic box)
Text: as §1

[8] = system: Abutilon theophrasti; experiment: as above
Text: as §1

[9] = system: Stellaria media; experiment: as above
Text: as §1

[10] = system: Echinochloa crus-galli var. crus-galli; experiment: as above
Text: as §1

[11] = system: Digitaria ciliaris; experiment: as above
Text: as §1

[12] = system: Alopecurus myosuroides; experiment: as above
Text: as §1

[13] = system: Lolium multiflorum Lam.; experiment: as above
Text: as §1

[14] = system: Avena fatua; experiment: as above
Text: as §1

[15] = system: Apera spica-venti.; experiment: as above
Text: as §1

[16] = system: Galium spurium; experiment: as above
Text: as §1

[17] = system: Veronica persica; experiment: as above
Text: as §1

[18] = system: Chenopodium album; experiment: as above
Text: as §1

[19] = system: Setaria viridis; experiment: as above
Text: as §1

CCn1nc2c(C(=O)Nc3ncnn3C)ccc(C(F)(F)F)n2c1=O [6-007]
effect on crop, e (Triticum aestivum) [1]: 0 (Herbicidal ratio of 5% or less (almost no effect)) | effect on crop, b (Zea mays) [2]: 0 (Herbicidal ratio of 5% or less (almost no effect)) | effect on crop, d (directly sowed Oryza sativa) [3]: 2 (Herbicidal ratio of 20% or more and less than 40%) | effect on crop, c (Glycine max) [4]: 0 (Herbicidal ratio of 5% or less (almost no effect)) | effect on crop, f (Beta vulgaris ssp. vulgaris) [5]: 3 (Herbicidal ratio of 40% or more and less than 70%) | effect on crop, g (Brassica campestris L.) [6]: 0 (Herbicidal ratio of 5% or less (almost no effect)) | herbicidal effect, N (Amaranthus retroflexus) [7]: 3 (Herbicidal ratio of 40% or more and less than 70%) | herbicidal effect, M (Abutilon theophrasti) [8]: 2 (Herbicidal ratio of 20% or more and less than 40%) | herbicidal effect, P (Stellaria media) [9]: 0 (Herbicidal ratio of 5% or less (almost no effect)) | herbicidal effect, H (Echinochloa crus-galli var. crus-galli) [10]: 0 (Herbicidal ratio of 5% or less (almost no effect)) | herbicidal effect, F (Digitaria ciliaris) [11]: 0 (Herbicidal ratio of 5% or less (almost no effect)) | herbicidal effect, J (Alopecurus myosuroides) [12]: 0 (Herbicidal ratio of 5% or less (almost no effect)) | herbicidal effect, K (Lolium multiflorum Lam.) [13]: 0 (Herbicidal ratio of 5% or less (almost no effect)) | herbicidal effect, I (Avena fatua) [14]: 0 (Herbicidal ratio of 5% or less (almost no effect)) | herbicidal effect, L (Apera spica-venti.) [15]: 0 (Herbicidal ratio of 5% or less (almost no effect)) | herbicidal effect, Q (Galium spurium) [16]: 0 (Herbicidal ratio of 5% or less (almost no effect)) | herbicidal effect, R (Veronica persica) [17]: 0 (Herbicidal ratio of 5% or less (almost no effect)) | herbicidal effect, O (Chenopodium album) [18]: 3 (Herbicidal ratio of 40% or more and less than 70%) | herbicidal effect, G (Setaria viridis) [19]: 0 (Herbicidal ratio of 5% or less (almost no effect))

Cc1nnc(NC(=O)c2ccc(C(F)(F)F)n3c(=O)n(C)nc23)o1 [6-001]
effect on crop, e (Triticum aestivum) [1]: 0 (Herbicidal ratio of 5% or less (almost no effect)) | effect on crop, b (Zea mays) [2]: 0 (Herbicidal ratio of 5% or less (almost no effect)) | effect on crop, d (directly sowed Oryza sativa) [3]: 0 (Herbicidal ratio of 5% or less (almost no effect)) | effect on crop, c (Glycine max) [4]: 0 (Herbicidal ratio of 5% or less (almost no effect)) | effect on crop, f (Beta vulgaris ssp. vulgaris) [5]: 3 (Herbicidal ratio of 40% or more and less than 70%) | effect on crop, g (Brassica campestris L.) [6]: 0 (Herbicidal ratio of 5% or less (almost no effect)) | herbicidal effect, N (Amaranthus retroflexus) [7]: 3 (Herbicidal ratio of 40% or more and less than 70%) | herbicidal effect, M (Abutilon theophrasti) [8]: 3 (Herbicidal ratio of 40% or more and less than 70%) | herbicidal effect, P (Stellaria media) [9]: 4 (Herbicidal ratio of 70% or more and less than 90%) | herbicidal effect, H (Echinochloa crus-galli var. crus-galli) [10]: 1 (Herbicidal ratio of 5% or more and less than 20%) | herbicidal effect, F (Digitaria ciliaris) [11]: 1 (Herbicidal ratio of 5% or more and less than 20%) | herbicidal effect, J (Alopecurus myosuroides) [12]: 0 (Herbicidal ratio of 5% or less (almost no effect)) | herbicidal effect, K (Lolium multiflorum Lam.) [13]: 0 (Herbicidal ratio of 5% or less (almost no effect)) | herbicidal effect, I (Avena fatua) [14]: 0 (Herbicidal ratio of 5% or less (almost no effect)) | herbicidal effect, L (Apera spica-venti.) [15]: 0 (Herbicidal ratio of 5% or less (almost no effect)) | herbicidal effect, Q (Galium spurium) [16]: 2 (Herbicidal ratio of 20% or more and less than 40%) | herbicidal effect, R (Veronica persica) [17]: 2 (Herbicidal ratio of 20% or more and less than 40%) | herbicidal effect, O (Chenopodium album) [18]: 4 (Herbicidal ratio of 70% or more and less than 90%) | herbicidal effect, G (Setaria viridis) [19]: 2 (Herbicidal ratio of 20% or more and less than 40%)

Cc1nnc(NC(=O)c2ccc(C(F)(F)F)n3c(=O)n(Cc4ccccc4)nc23)o1 [6-006]
effect on crop, e (Triticum aestivum) [1]: 0 (Herbicidal ratio of 5% or less (almost no effect)) | effect on crop, b (Zea mays) [2]: 0 (Herbicidal ratio of 5% or less (almost no effect)) | effect on crop, d (directly sowed Oryza sativa) [3]: 0 (Herbicidal ratio of 5% or less (almost no effect)) | effect on crop, c (Glycine max) [4]: 0 (Herbicidal ratio of 5% or less (almost no effect)) | effect on crop, f (Beta vulgaris ssp. vulgaris) [5]: 0 (Herbicidal ratio of 5% or less (almost no effect)) | effect on crop, g (Brassica campestris L.) [6]: 0 (Herbicidal ratio of 5% or less (almost no effect)) | herbicidal effect, N (Amaranthus retroflexus) [7]: 0 (Herbicidal ratio of 5% or less (almost no effect)) | herbicidal effect, M (Abutilon theophrasti) [8]: 1 (Herbicidal ratio of 5% or more and less than 20%) | herbicidal effect, P (Stellaria media) [9]: 1 (Herbicidal ratio of 5% or more and less than 20%) | herbicidal effect, H (Echinochloa crus-galli var. crus-galli) [10]: 0 (Herbicidal ratio of 5% or less (almost no effect)) | herbicidal effect, F (Digitaria ciliaris) [11]: 0 (Herbicidal ratio of 5% or less (almost no effect)) | herbicidal effect, J (Alopecurus myosuroides) [12]: 0 (Herbicidal ratio of 5% or less (almost no effect)) | herbicidal effect, K (Lolium multiflorum Lam.) [13]: 0 (Herbicidal ratio of 5% or less (almost no effect)) | herbicidal effect, I (Avena fatua) [14]: 0 (Herbicidal ratio of 5% or less (almost no effect)) | herbicidal effect, L (Apera spica-venti.) [15]: 0 (Herbicidal ratio of 5% or less (almost no effect)) | herbicidal effect, Q (Galium spurium) [16]: 0 (Herbicidal ratio of 5% or less (almost no effect)) | herbicidal effect, R (Veronica persica) [17]: 1 (Herbicidal ratio of 5% or more and less than 20%) | herbicidal effect, O (Chenopodium album) [18]: 3 (Herbicidal ratio of 40% or more and less than 70%) | herbicidal effect, G (Setaria viridis) [19]: 0 (Herbicidal ratio of 5% or less (almost no effect))
